Holding throughout (format): in vivo
Experiment [1] concerns db/db mice. The experiment can be described thus: Test Example 5: serum insulin in glucose tolerance test after 7-day oral dosing of saccharides. The settings on record: for insulin concentration during glucose loading compared with the control group (in words): continuous daily oral dosing; for Serum insulin concentration after glucose loading, 30 minutes / Serum insulin concentration after glucose loading, 120 minutes / Serum insulin concentration after glucose loading, Zero minute: oral 200 + 300 mg/kg daily, 7 days, glucose 2 g/kg oral, mean ± SD. The procedure:
(§1) Groups of male 9-week-old db/db mice (Clea Japan, Inc.) each consisting of 6 mice were fed CE-2 (Clea Japan, Inc.) for one week, so as to accustom the animals to the environment.
After acclimation, individual aqueous 10% solutions of lacto-N-neotetraose (abbreviated as “LNnT” hereinafter) and NeuAc were orally administered to the mice at 200 mg (saccharide)/kg body weight in the morning and at 300 mg (saccharide)/kg body weight in the evening. The same volume of saline was administered to the control group. The individual aqueous saccharide solutions and saline were both dosed daily to the mice for 7 days. During the dosing period, CE-2 was given together with drinking water ad libitum.
(§2) After 18-hour starvation from the final dosing on day 7, an aqueous 40% glucose solution was orally administered to 2 g (glucose)/kg body weight to the mice, to perform glucose tolerance test. Zero minute and 30 minutes after glucose loading, blood was taken from a tail vein. […] Blood was centrifuged (4° C., 10000 rpm, 10 minutes), to obtain serum.
(§3) Insulin in the serum recovered was assayed by enzyme immunoassay using Lebis Insulin kit (for rats-T) (Shibayagi, Co., Ltd.) in the same manner as in the Test Example 1.

Experiment [2] deals with db/db mice. Put plainly: Test Example 4: serum insulin in glucose tolerance test after 7-day oral dosing of saccharides. The settings on record: for serum insulin concentration during glucose loading compared with the control group (in words): continuous daily oral dosing; for Serum insulin concentration after glucose loading, 30 minutes / Serum insulin concentration after glucose loading, 120 minutes / Serum insulin concentration after glucose loading, Zero minute: oral 200 + 300 mg/kg daily, 7 days, glucose 2 g/kg oral, mean ± SD. The procedure:
as §1
After acclimation, individual aqueous 10% solutions of 3′-sialyllactose (abbreviated as “3′-SL” hereinafter), 6′-sialylactose (abbreviated as “6′-SL”) and 2′-FL were orally administered to the mice at 200 mg (saccharide)/kg body weight in the morning and at 300 mg (saccharide)/kg body weight in the evening. The both volume of saline was administered to the control group. The individual aqueous saccharide solutions and saline were both dosed daily to the mice for 7 days. During the dosing period, CE-2 was given together with drinking water ad libitum.
as §2, §3

For experiment [3], the system named is db/db mice. The experiment can be described thus: Test Example 3: serum insulin on day 8 after 7-day oral dosing of saccharides. The settings on record: for serum insulin concentration compared with the control group (in words): continuous daily oral dosing; for Serum insulin concentration after dosing of the individual saccharides: oral 200 + 300 mg/kg daily, 7 days, blood on day 8, no glucose loading, mean ± SD. How it is done:
Group of male 9-week-old db/db mice (Clea Japan, Inc.) each consisting of 6 mice were fed CE-2 (Clea Japan, Inc.) for one week, so as to accustom the animals to the environment.
After acclimation, individual aqueous 10% solutions of globotriose (abbreviated “globo” hereinafter), N-acetyllactosamine (abbreviated as “LacNac” hereinafter) and N-acetylneuraminic acid (abbreviated as “NeuAc” hereinafter) were orally administered to the mice at 200 mg (saccharide)/kg body weight in the morning and at 300 mg (saccharide)/kg body weight in the evening.
The same volume of saline was administered to the control group. The individual aqueous saccharide solutions and saline were both dosed daily to the mice for 7 days. During the dosing period, CE-2 was given together with drinking water ad libitum.
Blood was centrifuged (4° C., 10000 rpm, 10 minutes), to obtain serum.
as §3

Experiment [4] relates to ICR mice. The experiment can be described thus: Test Example 6: serum insulin after intravenous saccharide with simultaneous oral glucose loading. How it is done:
(§4) Groups of male 9-week-old ICR mice (Japan SLC, Inc.) each consisting of 7 mice were fed CE-2 (Clea Japan, Inc.) for one week, so as to accustom the animals to the environment. Then, the mice were fasted for 18 hours.
(§5) An aqueous 10% solution of 2′-FL or NeuAc was intravenously administered to the mice to 500 mg (saccharide)/kg body weight, while an aqueous 40% glucose solution was orally administered simultaneously to 2 g (glucose)/kg body weight, to the mice. To the control group, physiological saline was administered intravenously, while glucose was orally administered simultaneously to 2 g/kg body weight. Zero minute and 30 minutes after glucose loading, blood was taken from a tail vein. […] Blood was centrifuged (4° C., 10000 rpm, 10 minutes), to obtain serum.
Insulin in the serum recovered was assayed by enzyme immunoassay using Lebis Insulin kit (for mice-T) (Shibayagi, Co., Ltd.) in the same manner as in the Test Example 2.

The subject of experiment [5] is ICR mice. Put plainly: Test Example 6: serum glucose after intravenous saccharide with simultaneous oral glucose loading. The procedure: as §4, §5
Furthermore, the glucose concentration in the serum recovered was also assayed. The glucose concentration was assayed, using Glucose CII-TEST WAKO (WAKO Pure Chemical Industries, Ltd.). 2 μl of the recovered serum was placed in a 96-well plate, followed by addition of 200 μl of the chromogenic solution attached to the kit, for incubation at 37° C. for 10 minutes. After incubation, the absorbance at 490 nm was assayed with a plate reader. Herein, a standard curve was prepared by using aqueous 500 mg/dl glucose solution as the standard solution to dilute the standard solution appropriately for the same reaction as for the serum, and plotting the relation between the concentration and the absorbance (490 nm). Based on the prepared standard curve and the absorbance from the reaction with the serum, the glucose concentration in the serum was determined.

Where [6] appears, read: ICR mice fasted 18 hours, 500 mg/kg intravenous with simultaneous glucose 2 g/kg oral, 30 minutes, mean ± SD.
The mark [7] stands for this setting: ICR mice fasted 18 hours, 500 mg/kg intravenous with simultaneous glucose 2 g/kg oral, 120 minutes, mean ± SD.

We go through six compounds from patent US20030181401A1, “Insulin secretion promoter” (KYOWA HAKKO KOGYO CO., LTD., priority 2002, published 2003).

In the case of `CC(=O)N[C@H]1[C@H](O[C@H]2[C@@H](O)[C@@H](CO)O[C@@H](O[C@H]3[C@H](O)[C@@H](O)C(O)O[C@@H]3CO)[C@@H]2O)O[C@H](CO)[C@@H](O[C@@H]2O[C@H](CO)[C@H](O)[C@H](O)[C@H]2O)[C@@H]1O` (mixture of isomers) [LNnT, lacto-N-neotetraose], in the experiment with db/db mice [1], the “insulin concentration during glucose loading compared with the control group (in words)” value is given as “increased”; the “Serum insulin concentration after glucose loading, 30 minutes” value (shortened to “Serum insulin concentration … 30 minutes”) stood at 21.7 ± 13.8 ng/mL; the “Serum insulin concentration after glucose loading, 120 minutes” value (“Serum insulin concentration … 120 minutes” below) turned out to be 25.9 ± 13.2 ng/mL; the “Serum insulin concentration after glucose loading, Zero minute” value (shortened to “Serum insulin concentration … Zero minute”) was 8.9 ± 2.0 ng/mL.
As to `CC(=O)N[C@H]1[C@H]([C@H](O)[C@H](O)CO)O[C@@](O[C@H]2[C@@H](O)[C@@H](CO)O[C@@H](O[C@H]3[C@H](O)[C@@H](O)C(O)O[C@@H]3CO)[C@@H]2O)(C(=O)O)C[C@@H]1O` (some centres unmarked) [3′-SL, 3′-sialyllactose], in the experiment with db/db mice [2], the “serum insulin concentration during glucose loading compared with the control group (in words)” value is “increased”; the “Serum insulin concentration … 30 minutes” value turned out to be 5.1 ± 1.9 ng/mL; the “Serum insulin concentration … 120 minutes” value was 22.0 ± 12.5 ng/mL; the “Serum insulin concentration … Zero minute” value amounted to 6.0 ± 2.2 ng/mL.
As for `OC[C@H]1O[C@H](O[C@@H]2[C@H](O)[C@@H](O)[C@H](O[C@H]3[C@H](O)[C@@H](O)C(O)O[C@@H]3CO)O[C@@H]2CO)[C@H](O)[C@@H](O)[C@H]1O` (some centres unmarked) [Globo, globotriose], in the experiment on db/db mice [3], the “serum insulin concentration compared with the control group (in words)” value is given as “increased” and the “Serum insulin concentration after dosing of the individual saccharides” value (shortened to “Serum insulin concentration after dosing”) was 23.7 ± 16.4 ng/mL.
Take `CC(=O)N[C@H]1[C@H]([C@H](O)[C@H](O)CO)OC(O)(C(=O)O)C[C@@H]1O` (some centres unmarked) [NeuAc, N-acetylneuraminic acid]: in the experiment with db/db mice [3], the “serum insulin concentration compared with the control group (in words)” value is “increased” and the “Serum insulin concentration after dosing” value came to 68.4 ± 45.9 ng/mL. Besides, in the experiment with db/db mice [1], the “insulin concentration during glucose loading compared with the control group (in words)” value is “increased”; the “Serum insulin concentration … 30 minutes” value was found to be 18.5 ± 8.5 ng/mL; the “Serum insulin concentration … 120 minutes” value turned out to be 30.3 ± 10.7 ng/mL; the “Serum insulin concentration … Zero minute” value was determined as 8.9 ± 7.7 ng/mL. For the same compound, the “Serum insulin concentration … 30 minutes” value with ICR mice [4] (setting [6]) was determined as 178.3 ± 105.5 pg/mL. In addition, the “Serum insulin concentration … 120 minutes” value with ICR mice [4] (setting [7]) worked out at 384.4 ± 394.1 pg/mL. In addition, the “serum insulin concentration after glucose loading compared with the control group (in words)” value in the experiment with ICR mice [4] (ICR mice, intravenous dosing) is listed as “increased”. The “Serum glucose concentration after glucose loading, 30 minutes” value in the experiment on ICR mice [5] (setting [6]) was 300.9 ± 101.6 mg/dL. The “Serum glucose concentration after glucose loading, 120 minutes” value with ICR mice [5] (setting [7]) was 197.6 ± 28.8 mg/dL. In the experiment with ICR mice [5] (ICR mice fasted 18 hours, 500 mg/kg intravenous with simultaneous glucose 2 g/kg oral, zero minute, mean ± SD), the “Serum glucose concentration after glucose loading, Zero minute” value worked out at 102.6 ± 12.1 mg/dL. Besides, the “increase of the serum glucose concentration compared with the control group (in words)” value in the experiment on ICR mice [5] (ICR mice, intravenous dosing) is on record as “suppressed”.
Take `CC(=O)N[C@H]1C(O)O[C@H](CO)[C@@H](O[C@@H]2O[C@H](CO)[C@H](O)[C@H](O)[C@H]2O)[C@@H]1O` (some centres unmarked) [LacNac, N-acetyllactosamine]: in the experiment on db/db mice [3], the “serum insulin concentration compared with the control group (in words)” value is recorded as “increased” and the “Serum insulin concentration after dosing” value is 26.8 ± 11.5 ng/mL.
On to `CC(=O)N[C@H]1[C@H]([C@H](O)[C@H](O)CO)O[C@@](OC[C@H]2O[C@@H](O[C@H]3[C@H](O)[C@@H](O)[C@H](O)O[C@@H]3CO)[C@H](O)[C@@H](O)[C@H]2O)(C(=O)O)C[C@@H]1O` [6′-SL, 6′-sialylactose], for which, in the experiment on db/db mice [2], the “serum insulin concentration during glucose loading compared with the control group (in words)” value is reported as “increased”; the “Serum insulin concentration … 30 minutes” value was determined as 6.6 ± 3.4 ng/mL; the “Serum insulin concentration … 120 minutes” value came to 17.9 ± 6.3 ng/mL; the “Serum insulin concentration … Zero minute” value was 5.9 ± 3.0 ng/mL.
